# Legend:
# [1] = test system: MYC; test: Intracellular staining of MYC in LPS-activated THP-1 cells; assay type: cell-based; settings: THP-1, LPS 100 ng/ml, 16 μM, 24 hours
# Text: FIG. 16. Effect of MBK50 on MYC and IRF4 expression in LPS-activated monocytic leukemia cell line THP-1 cells. […] MYC and IRF4 expression levels were examined by intracellular staining of MYC and IRF4 with isotype control staining followed by flow cytometry. FIG. 16(a) A scheme of the experimental procedure. FIG. 16(b) A representative histogram overlay for the MYC expression in THP-1 cells treated with MBK50, mutant control peptide or PBS, with isotype control. The average mean fluorescent intensity (MFI) for MYC expression (n=3) for each treatment is shown in the right panel. FIG. 16(c) A representative histogram overlay for the IRF4 expression (red) in THP-1 cells treated with MBK50, mutant control peptide, or PBS, with isotype control (blue). The average MFI for IRF4 expression for each treatment is shown in the right panel.
# MYC is important for monocytic cell proliferation, especially upon LPS stimulation. […] MYC and IRF4 expression levels were examined by intracellular staining of MYC and IRF4 with isotype control staining followed by flow cytometry (FIG. 16a). […] Also, the percentage of THP-1 cells with reduced IRF4 expression was increased by MBK50 treatment compared to mutant control peptide or PBS treatment.
# [2] = test system: monocyte-derived dendritic cells; test: Monocyte-derived dendritic cell live/dead staining and culture images; assay type: cell-based, human
# Procedure: FIG. 14. Effect of MBK50 on CD14+ monocytes. FIG. 14(A) A scheme of the experimental procedure. Monocyte-derived dendritic cells were prepared from magnetic beads sorted CD14+ cells (from PBMC of a healthy donor) after culture for 4 days in the presence of GM-CSF+IL-4 (each 50 ng/ml). Cells were washed and cultured at 1×10^6/ml in a 96 well plate (200 μl/well in triplicates) without or with LPS (100 ng/ml), poly I:C (10 μg/ml), or sCD40L (1 μg/ml) in the presence of MBK50 (16 or 32 μM) or mutant peptide (32 μM) for 2 days. Live cells were determined using live/dead staining followed by flow cytometry analysis. FIG. 14(B) A representative flow profile with the gating strategy for live cells is shown. FIG. 14(C) Averages percentage of live cells for each culture condition are shown. *p<0.05, **p<0.01, ***p<0.001, ****p<0.0001
# FIG. 15. Representative images of monocyte derived dendritic cells (MDCs) from two human healthy donors after treatment with MBK50, mutant peptide, or PBS for two days in U-bottom 96 well culture. The diameter of the ring approximately corresponds to the cell volume/numbers in each well.
# Similar experiments were also performed with monocyte-derived dendritic cells as a model of human dendritic cells. […] Live cells were determined as shown above using live/dead staining.
# [3] = test system: activated CD3 T cells; test: Cytokine production by anti-CD3 stimulated PBMCs (Luminex 10 plex); assay type: cell-based, human; settings: 32 μM, 48 hours, vs untreated and control peptide-treated cultures
# Procedure: The effect of the peptide on cytokine production by human lymphoctyes were studied by an in vitro culture system. PBMCs were stimulated with anti-CD3 antibody in the presence of PBS, MBK50 (32 μM) or Mutant peptide (32 μM) in duplicates for 48 hours. The supernatant was recovered and assayed for 10 common cytokines 4-1(3, IL-2, IL-4, IL-5, IL-6, IL-8, IL-10, GM-CSF, IFNγ, TNFα) with Luminex using human 10 plex beads assay kit (Invitrogen).
# [4] = test system: NU-DUL1 cell; test: Cell growth inhibition with deletion peptides; assay type: cell-based
# Text: FIG. 7. Cell growth inhibition with deletion peptides identified key amino acid residue.
# BCL2 mutations are frequently seen in B-cell lymphoma and the cell types are often refractory to chemotherapy due to anti-apoptotic phenotype. […] In addition, Essential Leucine residue is identified with the deletion peptides.
# [5] = test system: human CD3 T cells; test: CD3 T cell proliferation after anti-CD3/28 stimulation, flow cytometry; assay type: cell-based; settings: 32 μM, 24 hours after 16 hours anti-CD3/28
# Procedure: To evaluate the effect of the peptide on human CD3 T cells, CD3 T cells were enriched by magnetic beads (CD3 positive selection beads, Stemcell technology) from PBMC samples from 5 healthy donors and stimulated with anti-CD3/28 tetramer (Stemcell technology) in triplicates for 16 hours before treating with PBS, MBK50 (32 μM) and Mutant peptide (32 μM) for 24 hours. Activated proliferating IRF4^+Ki67^+ CD3 T cells (red square in FIG. 5) in the culture were analyzed by live/dead-red staining (Invitrogen) and intracellular staining with anti-Ki67-FITC (Biolegend) and anti-IRF4-APC (Biolegend) antibodies. A representative flow cytometry profiles are shown in FIG. 5(a) for gating live CD3 T cell population and FIG. 5(b) Ki67 vs IRF4 for the gated live CD3 T cells. For FIG. 5(c-e), the means of triplicate cultures in each experiment for live cells % (c, n=5), total CD3 T cell numbers (d, n=5), and % of Ki67^+ cells (e, n=3) are shown in the top panel. The bottom panel are normalized data to PBS control cultures. P values calculated with Prism using one-way ANOVA with paired comparison. p<0.05 statistically significant.
# [6] = test system: CD19+ B cells; test: CD19+ B cell response to sCD40L, live/dead staining; assay type: cell-based; settings: 32 μM, sCD40L 1 μg/ml, 2 days
# Procedure: CD19^+ B cells were isolated with magnetic beads from PBMC of a healthy donor (n=1). Cells were washed and cultured at 1×10^6/ml in a 96 well plate (200 μl/well in triplicates) without or with sCD40L (1 μg/ml) in the presence of MBK50 (16 or 32 μM) or mutant peptide (32 μM) for 2 days. Live cells were determined as shown in FIG. 3 left panel using live/dead-red staining (live cells are gated as red-staining negative population). […] The peptide drug targets actively replicating B-cells that is consistent with MBK50 targeting MYC.
sequence,measurement,setting,value
LSSILQGLYQLDT [MBK50],MYC expression (MFI),[1],significantly reduced
same,percentage of live cells,"[2]; 16 or 32 μM, 2 days, PBS, LPS, sCD40L conditions, vs control peptide or PBS",significantly reduced
same,appearance of MDCs in culture,"[2]; two days, U-bottom 96 well culture",not clumped and were more spread and adhesive
same,"cytokine levels in supernatant, all detected except IL-10 and TNFα",[3],significantly reduced
same,activity on BCL2 negative lymphoma cell lines,[4],still works
same,effect on activated proliferating CD3 T cells,[5],preferentially targets actively dividing cells
same,live cell %,[6],reduced
same,total cell numbers,[6],increased

# Reference: patent publication US12528840B2, “Transcription active complex targeting cancer drug from viral protein sequence” (The Regents of the University of California, priority 2020, dated 2026)
